{"source": "patent US20090270342A1", "about": "“IMMUNOREGULATORY AGENT” (priority 2006, published 2009)", "format_in_all_cases": "in vivo", "key": {"[1]": {"tested_on": "anti-Cry j 1-IgE, IgG1 in serum", "test": "Anti-Cry j 1 antibody in serum of Cry j 1/alum-sensitized mice (Experiment 5)", "settings": "for Anti-Cry J 1-IgG1 in serum / Anti-Cry J 1-IgG1 in serum, relative to control: two weeks after the second sensitization", "procedure": "(§1) In order to investigate the effect of lactosucorse on systemic immunity, antibody level in serum was measured. Similarly as in Experiment 1, female BALB/c mice (six weeks old) were preliminary reared for one week on “AIN-93G”, the same standard purified diet as used in Experiment 1. Successively, “NYU-KA OLIGO 700”, a saccharide composition comprising 71.4% (w/w), on a dry solid basis, of lactosucrose commercialized by Hayashibara Shoji Inc., Okayama, Japan, was incorporated into the above purified diet, in which corn starch equal to the amount of the saccharide composition comprising lactosucrose had been removed, to give a lactosucrose content of 2% (w/w) or 5% (w/w), and five to seven mice/group were allowed to ingest the resulting test diet freely. Mice, allowed to ingest “AIN-93G”, as the standard purified diet, were used as control. At 10 days after from starting the administration of the test diet, mice were sensitized to antigen by administrating 20 μg of ovalbumin (OVA) (grade V, commercialized by Sigma Corporation) as antigen and 4.5 mg of “IMJECT®”, alum commercialized by Pierce ThermoScientific as adjuvant, into the peritoneal cavity. Successively, 15 days after from the first sensitization, the second sensitization was carried out by the same procedure. The blood was collected from caudal vein of mice at one, two, and three weeks after from the second sensitization, the serum was collected by centrifugation, and the amount of IgE to OVA was measured by EIA. In the cases of IgG1 and IgG2a, the amount of antibody was measured using serum collected at two weeks after from the second sensitization. The IgE and IgG2a titers were measured by capture EIA and IgG1 titer was measured by indirect EIA. Each titer was calculated by calibration curve prepared by using anti-OVA mouse serum (IgE: 1.760 U/ml, IgG1: 128,000 U/ml, IgG2a: 7,040 u/ml) as a standard serum. The amounts of IgE at one, two, or three weeks after from the second sensitization are in Table 5, and the amounts of IgG1 and IgG2a of two weeks after from the second sensitization are in Table 6. The percentages in parentheses in tables mean a relative value to the antibody concentration in serum of the control mice.\nIn order to investigate the usefulness of lactosucrose ingestion for preventing or treating allergy to cedar pollen, the effect of lactosucrose for suppressing the production of IgE, caused by Cry j 1, a cedar pollen allergen, was investigated as follows. Except for using 20 μg of “PURIFIED CEDAR POLLEN ALLERGEN Cry j 1”, Cry j 1 commercialized by Seikagaku Corporation, Tokyo, Japan, as a substitute for OVA, the experiment was carried out by the same procedure as in Experiment 4, and the amount of anti-Cry j 1-IgE was measured at one and two weeks after the second sensitization. Further, the amount of anti-Cry j 1-IgG1 was also measured at two weeks after the second sensitization. The amounts of anti-Cry j 1-IgE and anti-Cry j 1-IgG1 were measured by the same procedure as in Experiment 4 except for using “PURIFIED CEDAR POLLEN ALLERGEN Cry j 1-Biotin”, commercialized by Seikagaku Corporation, Tokyo, Japan, as a solid phase. The results for IgE and IgG1 are in Tables 7 and 8, respectively."}, "[2]": {"tested_on": "anti-OVA-IgE, IgG1, IgG2a in serum", "test": "Anti-OVA antibody in serum of OVA/alum-sensitized mice (Experiment 4)", "settings": "for Anti-OVA-IgG1 in serum / Anti-OVA-IgG2a in serum / Anti-OVA-IgG1 in serum, relative value to control / Anti-OVA-IgG2a in serum, relative value to control: two weeks after the second sensitization", "procedure": "as §1"}, "[3]": {"tested_on": "IgA in feces", "test": "Amount of IgA in feces of mice ingesting lactosucrose diet (Experiment 1)", "settings": "Lactosucrose 5% (w/w) diet", "procedure": "An experiment for investigating the effect of lactosucrose ingestion on the enhancement of gut immunity was carried out by measuring the amount of IgA in feces of mice. Female BALB/c mice (six weeks old) were preliminary reared for one week on “AIN-93G”, containing 40% (w/w) of corn starch, 20% (w/w) of casein, 13.2% (w/w) of α-corn starch, 10% (w/w) of sucrose, 7% (w/w) of soybean oil, 5% (w/w) of cellulose, 3.5% (w/w) of mineral mixture, 1% (w/w) of vitamin mixture, 0.3% (w/w) of L-cystine, and 0.0014% (w/w) of hydroquinone, which is a standard purified diet for researching the nutrition of mice and rats published by American National Institute of Nutrition in 1993. Successively, “LS-90P”, a saccharide composition comprising 91.8% (w/w), onadrysolid basis, of lactosucrose commercialized by ENSUIKO Sugar Refining Co., Ltd., Tokyo, Japan, was incorporated into the above purified diet, in which corn starch equal to the amount of the saccharide composition comprising lactosucrose had been removed, to give a lactosucrose content of 5% (w/w), and five mice/group were allowed to ingest the resulting test diet freely. Mice, allowed to ingest “AIN-93G”, as the standard purified diet, were used as control. Then, fresh feces were collected from the mice at one week, two weeks, three weeks, and four weeks after starting the administration of the test diet and the control diet, and the amount of IgA in the feces was measured by ELISA using anti-IgA antibody (Mouse IgA ELISA Quantitation Kit produced by Bethyl Laboratories, Inc., Texas, USA). The amount of IgA was expressed by mg/g-wet feces and the average value of those from five mice was determined. The percentages in parentheses in Table 1 mean relative values to those of the control at respective weeks."}, "[4]": {"settings": "Lactosucrose 2% (w/w) diet, one week after the 2nd sensitization"}, "[5]": {"settings": "Lactosucrose 2% (w/w) diet, two weeks after the 2nd sensitization"}, "[6]": {"settings": "Lactosucrose 2% (w/w), one week after the 2nd sensitization"}, "[7]": {"settings": "Lactosucrose 2% (w/w), two weeks after the 2nd sensitization"}, "[8]": {"settings": "Lactosucrose 5% (w/w) diet, one week after the 2nd sensitization"}, "[9]": {"settings": "Lactosucrose 5% (w/w) diet, two weeks after the 2nd sensitization"}, "[10]": {"settings": "Lactosucrose 5% (w/w), one week after the 2nd sensitization"}, "[11]": {"settings": "Lactosucrose 5% (w/w), two weeks after the 2nd sensitization"}}, "data": [{"molecule": "OC[C@H]1O[C@@H](O[C@H]2[C@H](O)[C@@H](O)[C@@H](O[C@]3(CO)O[C@H](CO)[C@@H](O)[C@@H]3O)O[C@@H]2CO)[C@H](O)[C@@H](O)[C@H]1O", "note": "[Lactosucrose, β-D-galactosyl-(1,4)-α-D-glucosyl-(1,2)-β-D-fructoside]", "values": [{"measurement": "Anti-Cry j 1-IgE in serum", "setting": "[1]; [4]", "result": "351 ± 277", "unit": "U/ml"}, {"measurement": "Anti-Cry j 1-IgE in serum", "setting": "[1]; [5]", "result": "239 ± 180", "unit": "U/ml"}, {"measurement": "Anti-Cry J 1-IgG1 in serum", "setting": "[1]; Lactosucrose 2% (w/w) diet", "result": "10.3 ± 6.01 ×10^4 U/ml"}, {"measurement": "Anti-Cry j 1-IgE in serum, relative to control", "setting": "[1]; [6]", "result": "(44%)"}, {"measurement": "Anti-Cry j 1-IgE in serum, relative to control", "setting": "[1]; Lactosucrose 2% (w/w), one week after the 2nd sensitization, listed as lactosucrose", "result": 44, "unit": "%"}, {"measurement": "Anti-Cry j 1-IgE in serum, relative to control", "setting": "[1]; [7]", "result": "(23%)"}, {"measurement": "Anti-Cry j 1-IgE in serum, relative to control", "setting": "[1]; Lactosucrose 2% (w/w), two weeks after the 2nd sensitization, listed as lactosucrose", "result": 23, "unit": "%"}, {"measurement": "Anti-Cry J 1-IgG1 in serum, relative to control", "setting": "[1]; Lactosucrose 2% (w/w)", "result": "(80%)"}, {"measurement": "Anti-Cry j 1-IgE in serum", "setting": "[1]; [8]", "result": "620 ± 157", "unit": "U/ml"}, {"measurement": "Anti-Cry j 1-IgE in serum", "setting": "[1]; [9]", "result": "404 ± 114", "unit": "U/ml"}, {"measurement": "Anti-Cry J 1-IgG1 in serum", "setting": "[1]; Lactosucrose 5% (w/w) diet", "result": "7.51 ± 2.89 ×10^4 U/ml"}, {"measurement": "Anti-Cry j 1-IgE in serum, relative to control", "setting": "[1]; [10]", "result": "(77%)"}, {"measurement": "Anti-Cry j 1-IgE in serum, relative to control", "setting": "[1]; [11]", "result": "(38%)"}, {"measurement": "Anti-Cry J 1-IgG1 in serum, relative to control", "setting": "[1]; Lactosucrose 5% (w/w)", "result": "(58%)"}, {"measurement": "Anti-OVA-IgE in serum", "setting": "[2]; [4]", "result": "270 ± 160", "unit": "U/ml"}, {"measurement": "Anti-OVA-IgE in serum", "setting": "[2]; Lactosucrose 2% (w/w) diet, three weeks after the 2nd sensitization", "result": "110 ± 62", "unit": "U/ml"}, {"measurement": "Anti-OVA-IgE in serum", "setting": "[2]; [5]", "result": "150 ± 35", "unit": "U/ml"}, {"measurement": "Anti-OVA-IgG1 in serum", "setting": "[2]; Lactosucrose 2% (w/w) diet", "result": "27 ± 10 ×10^4 U/ml"}, {"measurement": "Anti-OVA-IgG2a in serum", "setting": "[2]; Lactosucrose 2% (w/w) diet", "result": "4.0 ± 3.4 ×10^4 U/ml"}, {"measurement": "Anti-OVA-IgE in serum, relative value to control", "setting": "[2]; [6]", "result": "(87%)"}, {"measurement": "Anti-OVA-IgE in serum, relative value to control", "setting": "[2]; Lactosucrose 2% (w/w), three weeks after the 2nd sensitization", "result": "(52%)"}, {"measurement": "Anti-OVA-IgE in serum, relative value to control", "setting": "[2]; [7]", "result": "(58%)"}, {"measurement": "Anti-OVA-IgG1 in serum, relative value to control", "setting": "[2]; Lactosucrose 2% (w/w)", "result": "(68%)"}, {"measurement": "Anti-OVA-IgG2a in serum, relative value to control", "setting": "[2]; Lactosucrose 2% (w/w)", "result": "(41%)"}, {"measurement": "Anti-OVA-IgE in serum", "setting": "[2]; [8]", "result": "290 ± 77", "unit": "U/ml"}, {"measurement": "Anti-OVA-IgE in serum", "setting": "[2]; Lactosucrose 5% (w/w) diet, three weeks after the 2nd sensitization", "result": "160 ± 57", "unit": "U/ml"}, {"measurement": "Anti-OVA-IgE in serum", "setting": "[2]; [9]", "result": "120 ± 32", "unit": "U/ml"}, {"measurement": "Anti-OVA-IgG1 in serum", "setting": "[2]; Lactosucrose 5% (w/w) diet", "result": "28 ± 7.5 ×10^4 U/ml"}, {"measurement": "Anti-OVA-IgG2a in serum", "setting": "[2]; Lactosucrose 5% (w/w) diet", "result": "4.8 ± 3.8 ×10^4 U/ml"}, {"measurement": "Anti-OVA-IgE in serum, relative value to control", "setting": "[2]; [10]", "result": "(94%)"}, {"measurement": "Anti-OVA-IgE in serum, relative value to control", "setting": "[2]; Lactosucrose 5% (w/w), three weeks after the 2nd sensitization", "result": "(48%)"}, {"measurement": "Anti-OVA-IgE in serum, relative value to control", "setting": "[2]; [11]", "result": "(46%)"}, {"measurement": "Anti-OVA-IgG1 in serum, relative value to control", "setting": "[2]; Lactosucrose 5% (w/w)", "result": "(70%)"}, {"measurement": "Anti-OVA-IgG2a in serum, relative value to control", "setting": "[2]; Lactosucrose 5% (w/w)", "result": "(49%)"}, {"measurement": "Amount of IgA in feces, relative value to control", "setting": "[3]; 1 week after", "result": "(232%)"}, {"measurement": "Amount of IgA in feces", "setting": "[3]; 1 week after (8 weeks old)", "result": "13 ± 2.6", "unit": "mg/g"}, {"measurement": "Amount of IgA in feces, relative value to control", "setting": "[3]; 2 weeks after", "result": "(285%)"}, {"measurement": "Amount of IgA in feces", "setting": "[3]; 2 weeks after (9 weeks old)", "result": "5.7 ± 2.3", "unit": "mg/g"}, {"measurement": "Amount of IgA in feces, relative value to control", "setting": "[3]; 3 weeks after", "result": "(543%)"}, {"measurement": "Amount of IgA in feces", "setting": "[3]; 3 weeks after (10 weeks old)", "result": "7.6 ± 1.4", "unit": "mg/g"}, {"measurement": "Amount of IgA in feces, relative value to control", "setting": "[3]; 4 weeks after", "result": "(755%)"}, {"measurement": "Amount of IgA in feces", "setting": "[3]; 4 weeks after (11 weeks old)", "result": "8.3 ± 1.9", "unit": "mg/g"}]}]}
